From ChEMBL document CHEMBL1150901, “Enhancement of NO production in activated macrophages in vivo by an antimalarial crude drug, Dichroa febrifuga” (J Nat Prod, 1998)
The source made the active and inactive calls. The rule behind the calls is not given here.

Experiments:
Macrophage [1] = assay: […] of LPS-induced NO production in BCG-treated ICR mouse macrophages at 1 mg/kg/day, po administered for 3 days before BCG immunization measured after 24 hrs of LPS challenge by Griess reagent method; assay type: functional; design: scale not given: the % may be the effect or the level left
[2] = Activation of LPS-induced NO production in BCG-treated ICR mouse macrophages at 50 to 1000 mg/kg/day, po administered for 3 days before BCG immunization measured after 24 hrs of LPS challenge by Griess reagent method; assay type: functional, organism-based; conditions: Macrophage
Mus musculus [3] = assay: Antiinflammatory activity against po dosed ICR mouse assessed as number of peritoneal exudate cells; assay type: functional
Macrophage [4] = assay: Increase in LPS-induced NO production in ICR mouse at 1 mg/kg/day, po 0 to 2 days administered before BCG immunization measured after 24 hrs of LPS challenge by Griess reagent method; assay type: functional, organism-based
Macrophage [5] = assay: Increase in LPS-induced NO production in ICR mouse at 1 mg/kg/day, po 0 to 2 days administered after BCG immunization measured after 24 hrs of LPS challenge by Griess reagent method; assay type: functional, organism-based
[6] = Activation of LPS-induced NO production in BCG-treated ICR mouse macrophages at 1 mg/kg/day, po administered for 3 days before BCG immunization measured after 72 hrs of LPS challenge by Griess reagent method; assay type: functional, organism-based; conditions: Macrophage
Macrophage [7] = assay: Activation of NO production in BCG-treated ICR mouse macrophages at 1 mg/kg/day, po administered for 3 days before BCG immunization measured after 72 hrs of LPS challenge by Griess reagent method; assay type: functional, organism-based
[8] = Cytotoxicity against LPS-stimulated ICR mouse macrophages assessed as cell viability at 1 mg/kg/day after 72 hrs of LPS challenge by MTT assay; assay type: organism-based, Macrophage; conditions: read-out: Activity
[9] = Cytotoxicity against ICR mouse macrophages assessed as cell viability at 1 mg/kg/day after 72 hrs by MTT assay; assay type: organism-based, Macrophage; conditions: read-out: Activity
[10] = Activation of LPS-induced NO production in BCG-treated ICR mouse macrophages at 5 mg/kg/day, po administered for 3 days before BCG immunization measured after 24 hrs of LPS challenge by Griess reagent method; assay type: functional, organism-based; conditions: Macrophage
Mus musculus [11] = assay: Toxicity in ICR mouse assessed as occurrence of diarrhea at 5 mg/kg/day, po; assay type: organism-based; design: route oral; conditions: in vivo

| SMILES | Activity (Macrophage [1]) | Activity [2] | Activity (Mus musculus [3]) | Activity (Macrophage [4]) | Activity (Macrophage [5]) | Activity [6] | Activity (Macrophage [7]) | viability at 72 h [8] | viability at 72 h [9] | Activity [10] | Activity (Mus musculus [11]) |
| --- | --- | --- | --- | --- | --- | --- | --- | --- | --- | --- | --- |
| C[C@@H]1CC[C@H]2[C@@H](C)C(=O)O[C@@H]3O[C@@]4(C)CC[C@@H]1[C@]32OO4 [ARTEMISININ] | 23% | – | – | – | – | – | – | – | – | – | – |
| O=C(C[C@@H]1NCCC[C@H]1O)Cn1cnc2ccccc2c1=O [FEBRIFUGINE] | – | Dose-dependent effect | 378000000 | Active | Active | Active | inactive | 10% | > 90% | inactive | Not Active |
